Laboratory results as given in article PMC4463418, “The Effect of Hydrophobic Monoamines on Acid-Sensing Ion Channels ASIC1B” (Acta Naturae, 2015).
Each block holds one compound with its values, some of them ahead of it.

Assays:
Format in all cases: cell-based
[1] = target: T1, ASIC1b (Rattus norvegicus, UniProt P55926); assay: whole-cell patch clamp, CHO cells, activation at pH […]
T1 construct: gene Asic1; homomeric rASIC1b (splice variant) expressed in CHO cells
T1 sequence (P55926 186-526 limits assumed): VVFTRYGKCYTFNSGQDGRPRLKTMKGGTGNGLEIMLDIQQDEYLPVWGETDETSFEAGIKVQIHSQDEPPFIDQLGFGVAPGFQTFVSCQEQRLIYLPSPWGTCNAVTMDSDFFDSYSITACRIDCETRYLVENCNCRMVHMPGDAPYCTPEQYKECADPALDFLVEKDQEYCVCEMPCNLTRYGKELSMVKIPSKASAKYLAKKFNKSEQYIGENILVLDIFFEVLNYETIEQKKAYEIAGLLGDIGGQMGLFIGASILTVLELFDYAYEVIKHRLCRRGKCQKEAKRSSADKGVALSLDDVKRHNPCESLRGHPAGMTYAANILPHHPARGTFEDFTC

[2] = target: T1, ASIC1b; assay: whole-cell patch clamp, CHO cells, block at […], pH […]
[3] = target: T1, ASIC1b; assay: whole-cell patch clamp, CHO cells, inhibition at […]

SMILES: Nc1c2ccccc2nc2ccccc12 [9AA, 9-aminoacridine]
IC50 [1]: 440 ± 20 µM

SMILES: N=C(N)NC(=O)c1nc(Cl)c(N)nc1N [amiloride]
inhibition at 30 µM [2]: 53 ± 7%

inhibition at 1000 µM [3]: 44 ± 16%
SMILES: CC12CC3CC(C)(C1)CC(N)(C3)C2 [memantine]
